Row | Structure (SMILES) | melting point
1 | CCCn1c(CCOC)nc2c(N)nc3cc(OCCCN)ccc3c21 | 165 to 166 °C
2 | CCCCCCCCC=CCCCCCCCC(=O)NCCCSc1ccncc1 | 50 to 50.5 °C
3 | NC(=O)NN=Cc1ccc(Oc2cccnc2)cc1 | 160 to 162 °C
4 | CS(=O)(=O)c1ccc(C2=C(c3ccc(Cl)cc3)C(=O)N(C3CCCCC3)C2)cc1 | 142 to 144 °C
5 | CN1C(=O)CN(N)C(c2ccccc2)c2cc(Cl)ccc21 (stereo not drawn) | 147 to 148 °C
6 | NC(=O)CN1C(=O)C[C@@H]2CCCCC[C@@H]21 (relative stereo) | 140 to 142 °C
7 | S=c1n(CNCc2ccc(Cl)cc2)nc(-c2ccncc2)n1-c1ccccc1 | 222 to 223 °C
8 | CS(=O)(=O)c1ccc(-c2cc(C(=O)CCCO[N+](=O)[O-])nn2-c2ccccc2)cc1 | 142 to 144 °C
9 | CN(C)Cc1c(O)ccc2cc(Br)ccc12 | 95 to 96 °C
10 | COc1cc2[nH]c(S(=O)Cc3nccc(N4CCOCC4)c3F)nc2cc1C (stereo not drawn) | 185 to 186 °C
11 | O=C1NCN(c2ccccc2)C12CCN(CC1CCc3ccc(F)cc3C1O)CC2 (stereo not drawn) | 210 to 212 °C
12 | CC(C)(C)c1ccc(-c2nn3c(=O)c([N+](=O)[O-])c(Cl)nc3s2)cc1 | 245 to 248 °C
13 | COc1ccc2[nH]c(C(=O)c3ccccc3)c(NC(C)=O)c2c1OC | 118 to 120 °C
14 | CCN(CC)C(=O)c1cc(-c2ccc(Cl)cc2)c2ccsc2c1 | 135 °C
15 | COc1ccc2c(c1)C(OC(C)C)=C(C(=O)O)S2=O (stereo not drawn) | 184 to 187 °C
16 | Cc1ccc(NC(=O)c2cc(Cl)cc(C)n2)nc1 | 159 °C
17 | O=C(c1ccccc1)c1cnn2c(-c3cccc(N4CCCCC4=O)c3)ccnc12 | 160 to 162 °C
18 | CN1C(=O)N(C)C(c2c(C(C)(C)C)cc(O)cc2C(C)(C)C)N(C)C1=O | 194 to 196 °C
19 | COc1cc(CC(C#N)=CNc2ccccc2)cc(OC)c1N(C)C(C)=O | 202 to 204 °C
20 | COc1ccc2c(c1OC)C[C@@H](C1CCN(CCc3ccccc3)CC1)O[C@H]2CN (relative stereo) | 100 to 102 °C
21 | CCCCN1C(=O)c2cncnc2N(C(=O)CN2CCN(C)CC2)c2ccccc21 | 153 to 154 °C
22 | O=C(c1nc(Cl)c(Cl)[nH]1)N1CCOCC1 | 215 °C
23 | CC(c1oc2ccccc2c(=O)c1-c1ccccc1)n1cnc2c(N)ncnc21 (stereo not drawn) | 254 to 257 °C
24 | COC(=O)c1ccccc1S(=O)(=O)Nn1c(C)nn(-c2nc(OC)cc(OC)n2)c1=O | 174 °C
25 | CCCn1nc(-c2ccc(OC)cc2)c2cccc(-c3ccc(F)cc3)c21 | 110 to 111 °C

Row | Structure (SMILES) | melting point
26 | CCCc1c(OCc2ccc(C(=O)NCCCCc3cccnc3)cc2)ccc(C(C)=O)c1O | 91 to 95 °C
27 | C=CCn1c(=O)n(-c2ccc3c(c2)OCO3)c2ncc([N+](=O)[O-])cc21 | 152 to 153 °C
28 | O=C1Cc2ccccc2C=Cc2c(Cl)cccc21 | 151 to 153 °C
29 | Cc1cc(Oc2ccnc(OC(F)F)c2)nc(Oc2ccnc(OC(F)F)c2)c1 | 60 to 65 °C
30 | CCN(CC)CCNc1ncc2cc(-c3c(Cl)cccc3Cl)c(NC(=O)NC(C)(C)C)nc2n1 | 94.5 to 96.5 °C
31 | COc1ccc(C(=O)O)c(OCc2ccccc2)c1 | 99 to 101 °C
32 | CC(=O)Nc1ccccc1C#Cc1c(F)c(F)nc(F)c1F | 204 to 205 °C
33 | O=c1cnc2cc3[nH]c(-c4ccncc4)nc3cc2[nH]1 | > 320 °C
34 | CN(CCNc1ccnc2c(NC(=O)c3c(Cl)cccc3Cl)cccc12)C(=O)n1ccnc1 | 202 °C
35 | O=S(=O)(c1ccc(F)cc1)C(F)(F)C(F)(F)C(F)(F)C(F)(F)C(F)(F)C(F)(F)C(F)(F)C(F)(F)S(=O)(=O)c1ccc(F)cc1 | 109 to 110 °C
36 | Cc1cccc2c1NC(=O)c1cccnc1N2 | 233 to 235 °C
37 | COc1cc(C(C)=O)ccc1OCCC(C)N1CCN(c2nn(C(=O)c3ccccc3)c3cc(F)ccc23)CC1 (stereo not drawn) | 138 to 140 °C
38 | C=Cc1ncc2c(c1O)COC2C (stereo not drawn) | 237 to 238 °C
39 | NNc1cnc(-c2ccccc2)cn1 | 98 to 99 °C
40 | CC(C(=O)O)c1ccc2cc(OCCCCCCc3cccc(O)c3O)ccc2c1 (stereo not drawn) | 136 to 139 °C
41 | CS(=O)(=O)N1CCN([C@@H](CNC(=O)c2ccc(OCc3ccccc3)cc2)C(=O)NO)CC1 | 150 °C
42 | CCCCOc1cc(/C=C(\OCC)C(=O)O)ccc1OCCc1ccc(NC(=O)CC)cc1 | 164 °C
43 | O=C1NC(=O)C(=Cc2ccc(OCCN3c4ccccc4Sc4ccccc43)cc2)S1 | 168 to 170 °C
44 | OC1C[C@H]2CN(C3=Nc4cc(Cl)ccc4Oc4ccccc43)CCN2C1 (stereo partly drawn) | 90 to 92 °C
45 | CC(C)(C)C(=O)OCC(COC(=O)C(C)(C)C)OCn1cnc2c(=O)[nH]c(N)nc21 | 230 to 232 °C
46 | COC(=O)C(C)(C)Oc1ccc(-c2ccc(CCNC(=O)c3cc(Cl)ccc3OC)cc2)cc1 | < 20 °C
47 | COc1ccccc1N1CCN(CCNCCCN2CC=C(c3c[nH]c4cc(Cl)ccc34)CC2)CC1 | 71 to 73 °C
48 | CCCCCCNC(=O)c1cnc(OCC(O)CNC(C)C)nc1 (stereo not drawn) | 114 to 115 °C
49 | COc1ccc2[nH]cc(CCC(=O)O)c2c1 | 80 °C
50 | Oc1cccc(O)c1Br | 86 to 88 °C

Row | Structure (SMILES) | melting point
51 | NC1CN(C(=O)Nc2ccc(C(F)(F)F)cc2)N=C1c1ccc(Cl)cc1 (stereo not drawn) | 144 to 146 °C
52 | COc1ccc(C(=N)N)cc1C | 151 to 153 °C
53 | CN1Cc2c(C(=O)OCC3CCC3)ncn2-c2cccc(Cl)c2C1=O | 181 to 182 °C
54 | CCCCCc1ccc(-c2ncc(O)cn2)c(F)c1F | 104 to 105 °C
55 | CC(=O)c1ccc(Nc2cc(C)nc(N)n2)cc1 | 194 to 196 °C
56 | Cc1oc(-c2ccc(C(F)(F)F)cc2)nc1CCOc1c(Cl)cc(CN(O)C(N)=O)cc1Cl | 137 to 139 °C
57 | CN(O)C(=O)NCc1cccs1 | 106 to 107 °C
58 | COc1ccc2c(ccn2Cc2ccccc2Br)n1 | 86 to 87 °C
59 | CC(=O)N1CCSC1Cc1cnn(-c2ccccc2)c1-c1ccc(Cl)cc1 (stereo not drawn) | 121 to 122 °C
60 | COC(=O)CCc1sc(N)nc1-c1ccccc1 | 130 to 131 °C
61 | O=C1NC(=S)SC1=Cc1cc(Cl)c2c(c1)N(CCc1ccc(C(F)(F)F)cc1)C(=O)CO2 | 275 to 277 °C
62 | COc1cc(CCCC2OC(=O)NC2=O)cc(OC)c1OCc1coc(/C=C/c2ccccc2)n1 (stereo not drawn) | 94 to 95 °C
63 | CCOC(=O)N1CCC(Nc2nc3ccccc3n2Cc2ccccn2)CC1 | 162 °C
64 | Oc1cc(Cl)cc(Br)c1 | 66 to 68 °C
65 | COC(=O)N[C@@H](Cc1ccccc1)C(=O)CCl | 121 to 122 °C
66 | COc1c(NCc2cccc(C)c2)cc2oc(=O)[nH]c2c1F | 160 to 161 °C
67 | CC(=O)OCC1OC(n2cnc3c(-n4cnc(-c5ccccc5)c4-c4ccccc4)nc(Cl)nc32)C(OC(C)=O)C1OC(C)=O (stereo not drawn) | 146 °C
68 | CCCCc1nc2cccc(C(=O)O)c2n1Cc1ccc(-c2ccccc2S(=O)(=O)NC(=O)NCC2CC2)cc1 | 234 to 236 °C
69 | CCN1c2ncc(CS(=O)(=O)c3ccccc3)cc2C(=O)N(C)c2ccc(Cl)nc21 | 96 to 98 °C
70 | Cc1cccc2c(=O)[nH]c(C3CN4CCC3CC4)nc12 (stereo not drawn) | 230 to 231 °C
71 | CCOC(=O)c1cnc2c(c1Cl)CN(C(=O)OCC)CC2 | 231 to 233 °C
72 | O=C(Nc1ccccc1S(=O)(=O)c1ccccc1)N[C@@H](Cc1ccc(NC(=O)c2c(Br)cncc2Br)cc1)C(=O)O | 231 °C
73 | COC(=O)CCC(NC(c1ccccc1)c1ccccc1)P(O)O (stereo not drawn) | 162 to 164 °C
74 | CCCn1cc(C(=O)c2cccc3ccccc23)cc1C(=O)O | 145 °C
75 | COc1cc2ncnc(N3CCN(C(=O)Nc4ccccc4)CC3)c2cc1OC | 121 to 123 °C

Row | Structure (SMILES) | melting point
76 | N#Cc1ccc2c(c1)N(C1CC1)CNS2(=O)=O | 178 to 180 °C
77 | Cc1nc2ccccn2c1-c1csc(Nc2cccc(C(=O)Nc3ccccc3N)c2)n1 | 195 to 197 °C
78 | CS(=O)(=O)Nc1cc2occ(C(N)=O)c(=O)c2cc1Oc1ccccc1 | > 250 °C
79 | CSc1ccc(-c2nn(Cc3ccc(Cl)cc3Cl)c(=O)cc2-c2ccc(F)cc2)cc1 | 139 to 140 °C
80 | C=Cc1cc(OC)cc2cc(-c3ccc(OC)cc3)oc12 | 182 to 184 °C
81 | CN1C=Cc2ccccc2CC1=O | 81 to 82 °C
82 | COc1cc2cc3c(=O)[nH]cnc3cc2cc1OCCN1CCOCC1 | 230 to 232 °C
83 | CCn1cc(C(=O)O)c(=O)c2cc(F)c(N3CCNC(c4ccn(S(=O)(=O)c5ccccc5)c4)C3)cc21 (stereo not drawn) | 120 °C
84 | Cc1cnc(OCC2CN(C(C)(C)C)C(c3ccccc3)O2)c2cc(Cl)ccc12 (stereo not drawn) | 90 to 92 °C
85 | CN1C(=O)c2cnc(-c3ccccc3)nc2N(C(=O)CN2CCOCC2)c2ccccc21 | 180 to 181 °C
86 | CC(C)n1nc(-c2nc(C(N)=S)c(N)nc2-c2ccccc2)ccc1=O | > 250 °C
87 | CCc1ccc2ncc(C(=O)N(O)c3ccccc3)c(O)c2c1 | 218 °C
88 | CCOC(=O)CCCN(O)C(=O)NCCc1ccc(OC)c(OC)c1 | 75 to 76 °C
89 | COc1ccc(C(=O)c2c(Cc3ccccc3)sc3cc(OC)ccc23)cc1 | 110 to 112 °C
90 | CCOC(=O)n1nc(-c2cc(C(C)(C)C)c(O)c(C(C)(C)C)c2)c2ccc(C)nc21 | 208 to 209 °C
91 | COC(=O)c1cc(C(C)=O)c(C(F)(F)F)cc1N | 118 to 121 °C
92 | CCc1[nH]c(=S)n(Nc2cccc(C)c2)c1-c1ccccc1 | 202 to 204 °C
93 | COCC(=O)C(=NNc1ccc(I)cc1F)C(=O)OC | 141 to 146 °C
94 | NC(=O)c1cccc(-c2nc3sccn3c2-c2ccnc(N[C@@H]3CCCN(S(=O)(=O)c4ccc(Cl)cc4)C3)n2)c1 | 168 to 170 °C
95 | O=S(=O)(c1ccc(Cl)cc1)C(c1cc(F)ccc1F)c1ccncc1Cl (stereo not drawn) | 160 to 161 °C
96 | CC(=O)Oc1ccccc1C(=O)Oc1nc[nH]c1C(N)=O | 143 to 145 °C
97 | Clc1cc2c(nn1)CCCCC2 | 74 to 75 °C
98 | CCn1ncnc1COc1nc2c(cc1C(C)(C)C)nnn2-c1ccccc1F | 117 to 120 °C

— a melting point compilation (Tetko et al.; mined from patent text by program, amines drawn as free bases though some values may be those of a salt)
